These results are taken from patent publication US9163007B2, “5-substituted indazoles as kinase inhibitors” (AbbVie Inc., priority 2007, dated 2015).

The target of one assay is Cdc7/Dbf4 (Homo sapiens (Human), UniProt O00311). Nature of the assay: Cdc7 Inhibition Assay.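 Also: reaction mixtures incubated 30 min on streptavidin-coated plates, then quantified by scintillation counting, with inhibition curves fitted by non-linear regression.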 In kind it is biochemical. To be noted: 6 data point; read-out: Ki (μM) 6 data point.
Chain of Cdc7/Dbf4 (O00311 whole entry): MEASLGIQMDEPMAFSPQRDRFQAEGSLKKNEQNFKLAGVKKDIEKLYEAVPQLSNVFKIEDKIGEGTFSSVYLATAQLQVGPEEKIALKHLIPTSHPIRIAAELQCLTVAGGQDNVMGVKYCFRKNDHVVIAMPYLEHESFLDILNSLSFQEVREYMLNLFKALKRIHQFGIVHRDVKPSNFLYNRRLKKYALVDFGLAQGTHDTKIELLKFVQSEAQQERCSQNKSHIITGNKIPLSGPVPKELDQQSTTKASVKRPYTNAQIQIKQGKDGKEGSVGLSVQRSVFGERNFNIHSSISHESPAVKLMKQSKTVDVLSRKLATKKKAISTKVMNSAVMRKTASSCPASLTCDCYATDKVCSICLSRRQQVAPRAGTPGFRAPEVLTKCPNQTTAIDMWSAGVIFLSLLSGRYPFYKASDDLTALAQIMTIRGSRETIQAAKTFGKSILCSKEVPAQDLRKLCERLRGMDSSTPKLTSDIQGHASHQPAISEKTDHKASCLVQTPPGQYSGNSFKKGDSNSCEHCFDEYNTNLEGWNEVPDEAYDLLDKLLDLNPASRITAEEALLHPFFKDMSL
Chain of Cdc7/Dbf4 (Q9UBU7 whole entry partner): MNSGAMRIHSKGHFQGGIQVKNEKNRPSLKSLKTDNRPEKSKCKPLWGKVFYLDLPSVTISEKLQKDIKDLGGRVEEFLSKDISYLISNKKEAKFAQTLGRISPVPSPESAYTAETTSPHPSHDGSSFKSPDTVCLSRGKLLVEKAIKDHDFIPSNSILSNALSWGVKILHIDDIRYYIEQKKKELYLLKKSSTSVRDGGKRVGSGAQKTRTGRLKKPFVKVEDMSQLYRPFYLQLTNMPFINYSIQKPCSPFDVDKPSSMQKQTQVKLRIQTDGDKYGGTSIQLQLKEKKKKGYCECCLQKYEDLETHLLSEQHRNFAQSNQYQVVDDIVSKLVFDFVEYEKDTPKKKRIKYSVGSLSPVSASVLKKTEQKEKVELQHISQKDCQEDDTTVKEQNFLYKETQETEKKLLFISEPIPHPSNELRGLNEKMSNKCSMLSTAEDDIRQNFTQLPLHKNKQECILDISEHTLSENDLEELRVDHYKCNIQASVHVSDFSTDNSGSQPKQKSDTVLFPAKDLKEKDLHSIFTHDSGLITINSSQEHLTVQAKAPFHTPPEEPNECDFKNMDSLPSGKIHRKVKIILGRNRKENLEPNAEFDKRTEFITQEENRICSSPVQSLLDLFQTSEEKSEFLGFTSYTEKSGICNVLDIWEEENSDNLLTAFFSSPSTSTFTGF
Experimental: The reactions were incubated for 30 minutes on streptavidin-coated plates, washed, and quantified using a TopCount scintillation plate reader (Packard). IC50 values are determined via non-linear regression fitting of the data.
Take `CC1CN(C(=O)c2c(-c3ccc4[nH]ncc4c3)nnn2Cc2ccccc2)CC(C)O1` (stereo not drawn) [Example 254, 5-{1-benzyl-5-[(2,6-dimethylmorpholin-4-yl)carbonyl]-1H-1,2,3-triazol-4-yl}-1H-indazole]: the inhibitory constant (Ki) is above 1.23 µM.
Still for that read-out and setting: the figure for `NC1CCN(C(=O)c2c(-c3ccc4[nH]ncc4c3)nnn2Cc2ccccc2)CC1` [Example 197, 1-{[1-benzyl-4-(1H-indazol-5-yl)-1H-1,2,3-triazol-5-yl]carbonyl}piperidin-4-amine] is 1.23 µM.
`c1ccc(CNc2n[nH]c3ccc(-c4nnn(Cc5ccccc5)c4C4CC4)cc23)cc1` [Example 207, N-benzyl-5-(1-benzyl-5-cyclopropyl-1H-1,2,3-triazol-4-yl)-1H-indazol-3-amine]: the Ki turned out to be 0.046 µM.
Same read-out and setting: the figure for `O=C(c1cccc(Cl)c1)c1c(-c2ccc3[nH]ncc3c2)nnn1CC1CCOCC1` [Example 146, (3-chlorophenyl)[4-(1H-indazol-5-yl)-1-(tetrahydro-2H-pyran-4-ylmethyl)-1H-1,2,3-triazol-5-yl]methanone] is 0.229 µM; for `Cc1ccccc1-c1c(-c2ccc3[nH]nc(N)c3c2)nnn1CC1CCOCC1` [Example 171, 5-[5-(2-methylphenyl)-1-(tetrahydro-2H-pyran-4-ylmethyl)-1H-1,2,3-triazol-4-yl]-1H-indazol-3-amine] it is 0.03 µM.
With `CC(=O)N1CCN(C(=O)c2c(-c3ccc4[nH]ncc4c3)nnn2Cc2ccccc2)CC1` [Example 255, 5-{5-[(4-acetylpiperazin-1-yl)carbonyl]-1-benzyl-1H-1,2,3-triazol-4-yl}-1H-indazole], the Ki is above 1.23 µM.
Consider `O=C(c1c(-c2ccc3[nH]ncc3c2)nnn1Cc1ccccc1)N1CCOCC1` [Example 172, 5-[1-benzyl-5-(morpholin-4-ylcarbonyl)-1H-1,2,3-triazol-4-yl]-1H-indazole], for which the inhibition constant (Ki) was above 1.23 µM.
As for `O=C(c1c(-c2ccc3[nH]ncc3c2)nnn1Cc1ccccc1)N1CCCCC1` [Example 169, 5-[1-benzyl-5-(piperidin-1-ylcarbonyl)-1H-1,2,3-triazol-4-yl]-1H-indazole], the Ki was above 1.23 µM.
Same read-out and setting: the value for `O=C(Nc1ccccc1)c1c(-c2ccc3[nH]ncc3c2)nnn1Cc1ccccc1` [Example 243, 1-benzyl-4-(1H-indazol-5-yl)-N-phenyl-1H-1,2,3-triazole-5-carboxamide] was above 1.23 µM.

The assay is the same for the next values; noted with them: 11 data point; read-out: Ki (μM) 11 data point.
For the compound `O=S(=O)(Nc1n[nH]c2ccc(-c3nnn(Cc4ccccc4)c3C3CC3)cc12)c1ccc(Cl)cc1` [Example 220, N-[5-(1-benzyl-5-cyclopropyl-1H-1,2,3-triazol-4-yl)-1H-indazol-3-yl]-4-chlorobenzenesulfonamide], the inhibitory constant (Ki) was found to be 0.98 µM.
On the same count and under the same terms, the figure for `CCS(=O)(=O)Nc1n[nH]c2ccc(-c3cn(Cc4ccccc4)nn3)cc12` [Example 320, N-[5-(1-benzyl-1H-1,2,3-triazol-4-yl)-1H-indazol-3-yl]ethanesulfonamide] is 0.41 µM.
On the same count and under the same terms, the figure for `O=C1CCCN1c1n[nH]c2ccc(-c3cn(Cc4ccccc4)nn3)cc12` [Example 323, 1-[5-(1-benzyl-1H-1,2,3-triazol-4-yl)-1H-indazol-3-yl]pyrrolidin-2-one] is 0.18 µM.
Same read-out and setting: the figure for `O=S(=O)(Nc1n[nH]c2ccc(-c3nnn(Cc4ccccc4)c3C3CC3)cc12)c1ccccc1` [Example 217, N-[5-(1-benzyl-5-cyclopropyl-1H-1,2,3-triazol-4-yl)-1H-indazol-3-yl]benzenesulfonamide] is 1 µM; for `O=S(=O)(Nc1n[nH]c2ccc(-c3nnn(Cc4ccccc4)c3-c3ccccc3)cc12)c1ccccc1` [Example 199, N-[5-(1-benzyl-5-phenyl-1H-1,2,3-triazol-4-yl)-1H-indazol-3-yl]benzenesulfonamide] it is 0.34 µM; for `c1ccc(Cn2cc(-c3ccc4[nH]nc(N5CCOCC5)c4c3)nn2)cc1` [Example 399, 5-(1-benzyl-1H-1,2,3-triazol-4-yl)-3-morpholin-4-yl-1H-indazole] it is 0.63 µM.
For the compound `Clc1ccc(CNc2n[nH]c3ccc(-c4cn(Cc5ccccc5)nn4)cc23)cc1` [Example 412, 5-(1-benzyl-1H-1,2,3-triazol-4-yl)-N-(4-chlorobenzyl)-1H-indazol-3-amine], the Ki was 0.14 µM.
Take `c1ccc(Cn2cc(-c3ccc4[nH]nc(NCC5CCCCC5)c4c3)nn2)cc1` [Example 417, 5-(1-benzyl-1H-1,2,3-triazol-4-yl)-N-(cyclohexylmethyl)-1H-indazol-3-amine]: the inhibitory constant (Ki) is 0.35 µM.
On the same count and under the same terms, the value for `COc1ccc(CNc2n[nH]c3ccc(-c4cn(Cc5ccccc5)nn4)cc23)cc1` [Example 413, 5-(1-benzyl-1H-1,2,3-triazol-4-yl)-N-(4-methoxybenzyl)-1H-indazol-3-amine] was 0.052 µM; that for `c1ccc(CNc2n[nH]c3ccc(-c4cn(Cc5ccccc5)nn4)cc23)cc1` [Example 411, N-benzyl-5-(1-benzyl-1H-1,2,3-triazol-4-yl)-1H-indazol-3-amine] was 0.12 µM; that for `O=C1CN(CC(=O)Nc2n[nH]c3ccc(-c4cn(Cc5ccccc5)nn4)cc23)CCN1` [Example 314, N-[5-(1-benzyl-1H-1,2,3-triazol-4-yl)-1H-indazol-3-yl]-2-(3-oxopiperazin-1-yl)acetamide] was 0.18 µM.
`c1ccc(Cn2cc(-c3ccc4[nH]nc(NCCN5CCOCC5)c4c3)nn2)cc1` [Example 407, 5-(1-benzyl-1H-1,2,3-triazol-4-yl)-N-(2-morpholin-4-ylethyl)-1H-indazol-3-amine]: the Ki is 0.22 µM.
For `N#Cc1ccc(CNc2n[nH]c3ccc(-c4cn(Cc5ccccc5)nn4)cc23)cc1` [Example 415, 4-({[5-(1-benzyl-1H-1,2,3-triazol-4-yl)-1H-indazol-3-yl]amino}methyl)benzonitrile], the Ki came out at 0.065 µM.
Consider `c1ccc(-n2cc(-c3ccc4[nH]ncc4c3)nn2)cc1` [Example 418, 5-(1-phenyl-1H-1,2,3-triazol-4-yl)-1H-indazole], for which the Ki worked out at 0.192 µM.
With `Clc1ccc(Cn2cc(-c3ccc4[nH]ncc4c3)nn2)c(Cl)c1` [Example 32, 5-[1-(2,4-dichlorobenzyl)-1H-1,2,3-triazol-4-yl]-1H-indazole], the Ki stood at 0.0127 µM.
Same read-out and setting: the value for `Nc1n[nH]c2ccc(-c3nnn(Cc4ccc(C(F)(F)F)cc4)c3-c3ccc(F)cc3)cc12` [Example 150, 5-{5-(4-fluorophenyl)-1-[4-(trifluoromethyl)benzyl]-1H-1,2,3-triazol-4-yl}-1H-indazol-3-amine] was 0.43 µM; that for `O=C(CNC1CCCCC1)Nc1n[nH]c2ccc(-c3cn(Cc4ccccc4)nn3)cc12` [Example 316, N^1-[5-(1-benzyl-1H-1,2,3-triazol-4-yl)-1H-indazol-3-yl]-N^2-cyclohexylglycinamide] was 0.5 µM; that for `CN1CCN(c2n[nH]c3ccc(-c4cn(Cc5ccccc5)nn4)cc23)CC1` [Example 400, 5-(1-benzyl-1H-1,2,3-triazol-4-yl)-3-(4-methylpiperazin-1-yl)-1H-indazole] was 0.23 µM.
The same measure, in the same setting: the figure for `Cn1ccnc1-c1n[nH]c2ccc(-c3cn(Cc4ccccc4)nn3)cc12` [Example 398, 5-(1-benzyl-1H-1,2,3-triazol-4-yl)-3-(1-methyl-1H-imidazol-2-yl)-1H-indazole] is 0.489 µM; for `Fc1ccc(Cn2cc(-c3ccc4[nH]ncc4c3)nn2)cc1` [Example 10, 5-[1-(4-fluorobenzyl)-1H-1,2,3-triazol-4-yl]-1H-indazole] it is 0.0563 µM.
On to `O=C(CNC1CCC1)Nc1n[nH]c2ccc(-c3cn(Cc4ccccc4)nn3)cc12` [Example 318, N^1-[5-(1-benzyl-1H-1,2,3-triazol-4-yl)-1H-indazol-3-yl]-N^2-cyclobutylglycinamide], for which the Ki was above 1.23 µM.
In the case of `CCCCNc1n[nH]c2ccc(-c3cn(Cc4ccccc4)nn3)cc12` [Example 410, 5-(1-benzyl-1H-1,2,3-triazol-4-yl)-N-butyl-1H-indazol-3-amine], the Ki amounted to 0.04 µM.
Still for that read-out and setting: the figure for `O=S(=O)(Nc1n[nH]c2ccc(-c3nnn(Cc4ccccc4)c3C3CC3)cc12)c1ccccc1Cl` [Example 218, N-[5-(1-benzyl-5-cyclopropyl-1H-1,2,3-triazol-4-yl)-1H-indazol-3-yl]-2-chlorobenzenesulfonamide] is above 1.23 µM.
The same measure, in the same setting: the figure for `Fc1ccc(CNc2n[nH]c3ccc(-c4cn(Cc5ccccc5)nn4)cc23)c(F)c1` [Example 416, 5-(1-benzyl-1H-1,2,3-triazol-4-yl)-N-(2,4-difluorobenzyl)-1H-indazol-3-amine] is 0.037 µM; for `c1ccc(Cn2cc(-c3ccc4[nH]nc(NCC5CC5)c4c3)nn2)cc1` [Example 321, 5-(1-benzyl-1H-1,2,3-triazol-4-yl)-N-(cyclopropylmethyl)-1H-indazol-3-amine] it is 0.57 µM.
On the same count and under the same terms, the value for `Fc1cccc(CNc2n[nH]c3ccc(-c4cn(Cc5ccccc5)nn4)cc23)c1` [Example 414, 5-(1-benzyl-1H-1,2,3-triazol-4-yl)-N-(3-fluorobenzyl)-1H-indazol-3-amine] was 0.038 µM; that for `CN(C)CCC(=O)Nc1n[nH]c2ccc(-c3cn(Cc4ccccc4)nn3)cc12` [Example 311, N^1-[5-(1-benzyl-1H-1,2,3-triazol-4-yl)-1H-indazol-3-yl]-N^3,N^3-dimethyl-beta-alaninamide] was above 1.23 µM.
For `c1ccc(Cn2cc(-c3ccc4[nH]nc(-c5nccs5)c4c3)nn2)cc1` [Example 404, 5-(1-benzyl-1H-1,2,3-triazol-4-yl)-3-(1,3-thiazol-2-yl)-1H-indazole], the inhibition constant Ki amounted to 0.258 µM.
On the same count and under the same terms, the value for `CN(C)C(=O)c1n[nH]c2ccc(-c3cn(Cc4ccccc4)nn3)cc12` [Example 396, 5-(1-benzyl-1H-1,2,3-triazol-4-yl)-N,N-dimethyl-1H-indazole-3-carboxamide] was 0.681 µM.

The test system of another assay is HCT-116 cells. Nature of the assay: AlamarBlue Cell Viability Assays. In kind it is cell-based. As to conditions: Homo sapiens, treated 72 hours. As to the method:
AlamarBlue Cell Viability Assays
HCT-116 cells (3,000/well; 96-well format) were treated for 72 hours with increasing concentrations of compounds (0.01-30 μM in half-log increments). The cells were then incubated in fresh media with 10% AlamarBlue reagent (Invitrogen #DAL1100). AlamarBlue reactions were incubated according to the manufacturer's instructions (approximately 4 hours) and then analyzed using an fmax fluorescence microplate reader (Molecular Devices) using excitation/emission wavelengths of 544/595 nm. Data were analyzed using SOFTmax PRO software provided by the manufacturer.
A general note: The colour change of resazurin is a common sign of viable cells or microbes.
The compound `Clc1ccc(Cn2cc(-c3ccc4[nH]ncc4c3)nn2)c(Cl)c1` [Example 32, 5-[1-(2,4-dichlorobenzyl)-1H-1,2,3-triazol-4-yl]-1H-indazole] had an EC50 above 30000 nM.

By Ki is commonly meant a measure of affinity in units of concentration, obtained from inhibition or displacement. A word on the EC50: it is the concentration that produces a half-maximal response. A high value points to lower potency in that assay.
